Measured values published in US10813944B2, “Cyclodextrins as procoagulants” (STICHTING SANQUIN BLOEDVOORZIENING, priority 2016, dated 2020).

Tests used:
[1] = test system: plasma deficient in coagulation factor VIII; assay: Thrombin generation assay in plasma deficient in coagulation factor VIII; format: biochemical, human
Method: FIG. 20: Plasma deficient in coagulation factor VIII was spiked with cyclodextrin OKL-1111 (A), OKL-1180 (B), and OKL-1187 (C) at the indicated concentrations.
(§1) The Calibrated Automated Thrombogram® assays the generation of thrombin in clotting plasma using a microtiter plate reading fluorometer (Fluoroskan Ascent, ThermoLab systems, Helsinki, Finland) and Thrombinoscope® software (Thrombinoscope BV, Maastricht, The Netherlands). The assay was carried out as described by Hemker et al. (Pathofysiol. IIaemost. Thromb. 2003, 33, 4-15), and the Thrombinoscope® manual. Coagulation was triggered by recalcification in the presence of 1 or 5 pM recombinant human tissue factor (Innovin®, Siemens, Marburg, Germany), 4 μM phospholipids, and 417 μM fluorogenic substrate Z-Gly-Gly-Arg-AMC (Bachem, Bubendorf, Switzerland). Fluorescence was monitored using the Fluoroskan Ascent fluorometer (ThermoLabsystems, Helsinki, Finland), and the lag time, peak thrombin, velocity index and area under the curve (ETP) were calculated using the Thrombinoscope® software (Thrombinoscope BV).

[2] = test system: plasma of a hemophilia A patient containing anti-FVIII antibodies; assay: Thrombin generation in plasma of a hemophilia A patient with anti-factor VIII antibodies; format: biochemical, human; conditions: anti-FVIII antibodies 50 BU
Method: FIG. 28: Effect of OKL-1111 (A), OKL-1180 (B) and OKL-1187 (C) on coagulation in plasma of a hemophilia A patient with anti-factor VIII antibodies. BU=Bethesda Units.
as §1
The patient had developed antibodies against factor VIII prior to plasma withdrawal. The plasma contained high levels of anti-FVIII antibodies (50 BU).

VKA plasma = assay: Thrombin generation in plasma of individuals taking vitamin K antagonists (VKA plasma); format: biochemical, human; conditions: two intensities of treatment (INR); 1 pM TF
From the text: FIG. 11: Plasma was used from individuals taking vitamin K-antagonists (VKA plasma). Two different intensities of treatment (given as INR) were available, as depicted in (A) and (B). The plasmas were subjected to thrombin generation analysis as described in the Materials and Methods section with 1 pM tissue factor (TF) as initiator of coagulation.
as §1

[3] = test system: human plasma deficient in coagulation factor XI; assay: Thrombin generation assay in human plasma deficient in coagulation factor XI; format: biochemical
Method: as §1

[4] = test system: thrombin generation in pooled normal plasma; assay: Calibrated Automated Thrombogram thrombin generation assay in pooled normal plasma; format: biochemical, human
[5] = test system: plasma deficient in coagulation factor IX; assay: Thrombin generation assay in plasma deficient in coagulation factor IX; format: biochemical, human
Method: as §1

[6] = test system: mice anticoagulated with rivaroxaban; assay: In vivo saphenous vein bleeding model in mice anticoagulated with rivaroxaban; conditions: mice fed rivaroxaban for 4 days; cyclodextrin by tail vein injection 5 min before bleeding assay; OKL-1111 dose expected to give 25 μM in plasma
Method: FIG. 29: In vivo analysis of procoagulant potential of OK-1111 and OKL-1147. Except for controls, animals were treated with rivaroxaban for 4 days and cyclodextrins were administered 5 min prior bleeding assay.
All animal protocols were approved by the Institutional Animal Care and Use Committee of the University of North Carolina. C57BL6/J mice were purchased from Charles Rivers Laboratories (Willmington, Mass.). Bleeding studies were done essentially as previously described Pastoft et al. (Haemophilia 2012; 18:782-8). Mice were anesthetized with isoflurane throughout all procedures. The hair on the ventral side of both hind limbs was removed. The animals were placed supine on a temperature and ECG monitoring board. The paws were gently restrained by looping soft polyethylene tubing around them and attaching the tubing to the ECG board. The skin on the left and right ventral hind limb was incised which exposes a length of the saphenous neurovascular bundle; the bundle was covered with normal saline to prevent drying. To assess haemostasis, the right saphenous vein was transected by piercing it with a 23-G needle followed by a longitudinal incision made in the distal portion of the vessel. Blood was gently wicked away until haemostasis occurred. The clot was then removed to restart bleeding and the blood was again wicked away until haemostasis occurs again. Clot disruption was repeated after every incidence of haemostasis for 30 minutes. Mice were fed chow that contained 0.1 mg rivaroxaban per g of chow. The mice were on this diet for 4 days to allow them to reach a steady state. Cyclodextrins were administered by a tail vein injection 5 minutes before the start of the bleeding assay. Two parameters were measured: 1) the number of times that haemostasis occurs in a 30 minute period, and 2) the time required for each haemostasis.

[7] = test system: thrombin generation in pooled normal plasma spiked with anticoagulants; assay: Thrombin generation assay in pooled normal plasma spiked with anticoagulants; format: biochemical, human; conditions: 1 pM TF
Method: FIGS. 3-8, 12, 14-19 and 22-27: Pooled normal plasma was spiked with cyclodextrins (100 μM, unless otherwise indicated) and anticoagulants. The concentrations of the anticoagulants were 100 ng/ml for dabigatran (A), 100 ng/ml for rivaroxaban (B), 60 ng/ml for apixaban (C), 60 ng/ml for edoxaban (D). The plasmas were subjected to thrombin generation analysis as described in the Materials and Methods section with 1 pM tissue factor (TF) as initiator of coagulation.
FIG. 9: Pooled normal plasma was spiked with OKL-1111 (100 μM, unless otherwise indicated (A)) and anticoagulants (B-E). The concentrations of the anticoagulants were 100 ng/ml for dabigatran (B), 100 ng/ml for rivaroxaban (C), 60 ng/ml for apixaban (D), 60 ng/ml for edoxaban (E). The plasmas were subjected to thrombin generation analysis as described in the Materials and Methods section with 1 pM tissue factor (TF) as initiator of coagulation.
FIG. 10: Pooled normal plasma was spiked with OKL-1111 (100 μM) and anticoagulants (A-F). The concentrations of the anticoagulants were 2 μg/ml for fondaparinux (A), 0.4 U/ml for nadroparin (B), 0.1 U/ml for tinzaparin (C), 0.03 U/ml for unfractionated heparin (UFH) (D), 0.5 U/ml for hirudin (E) and 10 μg/ml for bivalirudin (F). The plasmas were subjected to thrombin generation analysis as described in the Materials and Methods section with 1 pM tissue factor (TF) as initiator of coagulation.
as §1

[8] = test system: normal human plasma pretreated with inhibitory antibodies against factor IX; assay: Thrombin generation in normal plasma spiked with inhibitory antibodies against factor IX; format: biochemical; conditions: antibody 5F5 20 μg/ml; 1 pM TF
Method: as §1
Normal plasma was spiked with inhibitory antibodies against factor VIII (Sanquin, VK34, 14 μg/ml), factor IX (Sanquin, 5F5, 20 μg/ml) or factor XI (Sanquin, mix of #203 and #175, 75 μg/ml). The effect of OKL-1111 was tested in thrombin generation assay using 1 pM tissue factor (TF). This model is representative for hemophilia A, B and C patients that have developed inhibitory antibodies against plasma-derived or recombinant factor VIII or IX or XI they are treated with.

[9] = normal plasma, versus absence of cyclodextrin

## O=C(O)CCCCCSCC1OC2OC3C(CSCCCCCC(=O)O)OC(OC4C(CSCCCCCC(=O)O)OC(OC5C(CSCCCCCC(=O)O)OC(OC6C(CSCCCCCC(=O)O)OC(OC7C(CSCCCCCC(=O)O)OC(OC8C(CSCCCCCC(=O)O)OC(OC9C(CSCCCCCC(=O)O)OC(OC1C(O)C2O)C(O)C9O)C(O)C8O)C(O)C7O)C(O)C6O)C(O)C5O)C(O)C4O)C(O)C3O (stereo not shown) [OKL-1111]
[1]
  procoagulant effect in factor VIII deficient plasma: stimulate coagulation significantly
[2]
  thrombin generation in hemophilia A patient plasma: concentration-dependently stimulated thrombin generation
VKA plasma
  thrombin generation in plasma of patients using vitamin K antagonists: could be improved
[3]
  stimulation of coagulation in factor XI deficient plasma: stimulate coagulation significantly
[4]; no anticoagulant, cyclodextrin 100 μM unless otherwise indicated, 1 pM TF
  procoagulant effect in normal plasma: very strong procoagulant effects
[4]; [9]
  lag time: considerably shorter
  peak thrombin: largely increased
[5]
  procoagulant activity in factor IX deficient plasma: stimulate coagulation significantly
[6]
  clotting times: normalization of the clotting times
[7]; UFH 0.03 U/ml, OKL-1111 100 μM
  restoring thrombin generation in plasma anticoagulated with unfractionated heparin: capable of restoring thrombin generation
[7]; apixaban 60 ng/ml, cyclodextrin 100 μM
  effect on the anticoagulant effect of apixaban: restoration of thrombin generation to levels far above that of non-anticoagulated plasma
[7]; bivalirudin 10 μg/ml, OKL-1111 100 μM
  restoring thrombin generation in plasma anticoagulated with bivalirudin: capable of restoring thrombin generation
[7]; dabigatran 100 ng/ml, cyclodextrin 100 μM
  effect on the anticoagulant effect of dabigatran: restoration of thrombin generation to levels far above that of non-anticoagulated plasma
[7]; edoxaban 60 ng/ml, cyclodextrin 100 μM
  effect on the anticoagulant effect of edoxaban: restoration of thrombin generation to levels far above that of non-anticoagulated plasma
[7]; fondaparinux 2 μg/ml, OKL-1111 100 μM
  restoring thrombin generation in plasma anticoagulated with pentasaccharide (arixtra): capable of restoring thrombin generation
[7]; hirudin 0.5 U/ml, OKL-1111 100 μM
  restoring thrombin generation in plasma anticoagulated with hirudin: capable of restoring thrombin generation
[7]; nadroparin 0.4 U/ml, tinzaparin 0.1 U/ml, OKL-1111 100 μM
  restoring thrombin generation in plasma anticoagulated with low molecular weight heparin: capable of restoring thrombin generation
[7]; rivaroxaban 100 ng/ml, cyclodextrin 100 μM
  effect on the anticoagulant effect of rivaroxaban: restoration of thrombin generation to levels far above that of non-anticoagulated plasma
[8]
  thrombin generation in plasma with inhibitory antibodies against factor IX: concentration-dependently stimulated thrombin generation
